Patent US11701362B2, “Compositions and methods of use of cis-4-[2-{[(3S,4R)-3-fluorooxan-4-yl]amino}-8-(2,4,6-trichloroanilino)-9H-purin-9-yl]-1- methylcyclohexane-1-carboxamide” (Celgene Corporation, priority 2017, dated 2023)
In brackets after ≈: the same amount, converted by molar mass. Structures can show the parent of a compound that is named as a salt.

Columns and labels:
Format in all cases: physicochemical
[1] = Solubility of Compound 1 citrate in pH 6.5 phosphate buffer with SLS
Method: Solubility of Compound 1 was determined in various percentages of sodium lauryl sulfate (SLS). 0.03% SLS was selected as the media for dissolution condition 3. Samples were filtered using a 0.2 μm nylon syringe filter, and analyzed by UPLC-UV utilizing the method parameters listed in Table 9.

[2] = Dissolution of drug in capsule in 0.01N HCl and 0.001N HCl at 37° C.; conditions: for Compound 1 released: 125 mg capsule, 37° C., 60 minutes
Method: To assess the feasibility of using Compound 1 in a capsule to support FIH study, a dissolution study with a capsule containing 125 mg Compound 1 free base monohydrate was performed in the media of 0.01N HCl and 0.001N HCl at 37° C. Capsule shell shrinkage was observed. […] Blend in capsule or other formulation approaches may be necessary.
A dissolution study for citrate salt in a capsule in 0.01N HCl was also carried out.

[3] = Solubility study (water, SGF, SIF, preclinical vehicle, bio-relevant media); conditions: for Solubility, Concentration: at 24 hours
Method: (§1) Solubility Study: Compound 1 free base pKa was determined to be 5.14. […] Solubility in the preclinical formulation, 0.5% CMC/0.25% Tween 80, was determined to be 0.18 mg/ml at pH 8.1.

[4] = Solid state chemical and physical stability of free base monohydrate
Method: Chemical Stability Study: Solid state stability of Compound 1 free base monohydrate was evaluated at 80° C. for 2 weeks and 40° C./75% RH, 50° C./75% RH and 60° C. for up to 5 weeks.
This dehydrate form converted back to monohydrate immediately when samples were exposed to room temperature and RH>30%. If RH is in the range of 5-30%, the dehydrate form may take 1-3 days to convert back to monohydrate.

[5] = pKa determination
Method: as §1

[6] = Solution and suspension stability; conditions: 37° C.
Method: The solution stability of Compound 1 free base in water, SGF (pH 1.3), SIF (pH 7.5), and 0.1N NaOH with and without light protection at 37° C. was tested.

[7] = Tablet dissolution in pH 2 phosphate buffer and pH 5 phosphate buffer with 0.1% sodium laureth sulfate; conditions: tablets, pH 5 phosphate buffer and 0.1% sodium laureth sulfate
[8] = Bulk and tap density and flow properties (Carr's Index, Hausner's Ratio)
Method: Needle-like particle shapes have poor powder flow and low densities. […] Reduced drug loadings (dilution of the poor flow component) improved flow characteristics of the resultant blend.
The 5 formulations covered drug loadings of 1.8-23.0% and 1-25 mg strengths. The bulk and tap densities for each formulation are included in Table 30.
Flow property scales for Carr's (Compressibility) Index and Hausner's Ratio are described in Table 37. The flow of the blends was assessed as very poor to passible.

C[C@]1(C(N)=O)CC[C@@H](n2c(Nc3c(Cl)cc(Cl)cc3Cl)nc3cnc(N[C@@H]4CCOC[C@H]4F)nc32)CC1 (relative stereo) [Compound 1 citrate, cis-4-[2-{[(3S,4R)-3-fluorooxan-4-yl]amino}-8-(2,4,6-trichloroanilino)-9H-purin-9-yl]-1-methylcyclohexane-1-carboxamide]
solubility ([1]; 0.01% SLS): 0.000 mg salt/mL | solubility ([1]; 0.02% SLS): 0.001 mg salt/mL | solubility ([1]; 0.03% SLS): 0.054 mg salt/mL | solubility ([1]; 0.05% SLS): 0.336 mg salt/mL | solubility ([1]; 0.1% SLS): 0.807 mg salt/mL | dissolution profile compared to freebase monohydrate ([2]; capsule in 0.01N HCl): better dissolution profile

C[C@]1(C(N)=O)CC[C@@H](n2c(Nc3c(Cl)cc(Cl)cc3Cl)nc3cnc(N[C@@H]4CCOC[C@H]4F)nc32)CC1 (relative stereo) [Compound 1 free base monohydrate, cis-4-[2-{[(3S,4R)-3-fluorooxan-4-yl]amino}-8-(2,4,6-trichloroanilino)-9H-purin-9-yl]-1-methylcyclohexane-1-carboxamide]
Solubility, Concentration ([3]; FaSSGF): 2810 µg/mL | Solubility, Concentration ([3]; FaSSIF): 260 µg/mL | Solubility, Concentration ([3]; FeSSGF): 4 µg/mL | Solubility, Concentration ([3]; FeSSIF): 2070 µg/mL | pH @ 24 hr ([3]; solubility sample in FaSSGF): 1.84 | pH @ 24 hr ([3]; solubility sample in FaSSIF): 6.48 | pH @ 24 hr ([3]; solubility sample in FeSSGF): 6.31 | pH @ 24 hr ([3]; solubility sample in FeSSIF): 4.94 | solid state chemical stability ([4]; 80° C. for 2 weeks, 40° C./75% RH, 50° C./75% RH and 60° C. up to 5 weeks): chemically relatively stable | time for the dehydrate form to convert back to monohydrate ([4]; RH in the range of 5-30%): 1 to 3 days | physical stability ([4]; heated at 60 and 80° C.): lost water and converted to a dehydrate form | Compound 1 released ([2]; 0.001N HCl): 10% | Compound 1 released ([2]; 0.01N HCl): About 80%

C[C@]1(C(N)=O)CC[C@@H](n2c(Nc3c(Cl)cc(Cl)cc3Cl)nc3cnc(N[C@@H]4CCOC[C@H]4F)nc32)CC1 (relative stereo) [Compound 1 free base, cis-4-[2-{[(3S,4R)-3-fluorooxan-4-yl]amino}-8-(2,4,6-trichloroanilino)-9H-purin-9-yl]-1-methylcyclohexane-1-carboxamide]
pKa [5]: 5.14 | solution stability, remaining ([6]; 0.1N NaOH without light protection, day 1): 88% | solution stability, remaining ([6]; 0.1N NaOH without light protection, day 4): 61% | solution stability, remaining ([6]; water, SGF (pH 1.3), SIF (pH 7.5), 0.1N NaOH, 4 days, all except 0.1N NaOH without light protection): > 95%

C[C@]1(C(N)=O)CC[C@@H](n2c(Nc3c(Cl)cc(Cl)cc3Cl)nc3cnc(N[C@@H]4CCOC[C@H]4F)nc32)CC1 (relative stereo) [HCl salt of Compound 1, cis-4-[2-{[(3S,4R)-3-fluorooxan-4-yl]amino}-8-(2,4,6-trichloroanilino)-9H-purin-9-yl]-1-methylcyclohexane-1-carboxamide]
dissolution compared with free base and citrate salt [7]: higher dissolution

C[C@]1(C(N)=O)CC[C@@H](n2c(Nc3c(Cl)cc(Cl)cc3Cl)nc3cnc(N[C@@H]4CCOC[C@H]4F)nc32)CC1 [Compound 1, cis-4-[2-{[(3S,4R)-3-fluorooxan-4-yl]amino}-8-(2,4,6-trichloroanilino)-9H-purin-9-yl]-1-methylcyclohexane-1-carboxamide]
Bulk Density [8]: 0.2 g/mL | Tap Density [8]: 0.38 g/mL | solubility ([3]; 0.5% CMC/0.25% Tween 80 (preclinical formulation), aqueous with cosolvent or surfactant or cyclodextrin, preclinical formulation 0.5% CMC/0.25% Tween 80, pH 8.1, read-out: solubility): 180 µg/mL (≈ 315 µM) | solubility ([3]; pH 4.5, aqueous buffer, read-out: solubility): ~250 µg/mL (≈ 438 µM) | solubility ([3]; simulated gastric fluid (SGF), simulated gastric fluid, simulated gastric fluids (SGF) (pH 1.9), read-out: solubility): 3500 µg/mL (≈ 6130 µM) | solubility ([3]; simulated gastric fluid, low pH (0.1 N HCl), read-out: solubility): ~1700 µg/mL (≈ 2980 µM) | solubility ([3]; simulated intestinal fluid (SIF), pH 7.3, fassgf or other biorelevant, read-out: solubility): 2 µg/mL (≈ 3.5 µM) | solubility ([3]; simulated intestinal fluids (SIF) (pH 7.3)): 2 µg/mL (≈ 3.5 µM) | solubility ([3]; water (pH 8.1), read-out: solubility): 3 µg/mL (≈ 5.26 µM) | pKa [5]: ~5.1
